This passage reports IC50 results from patent publication US20250215030A1, “STAT MODULATORS AND USES THEREOF” (Recludix Pharma, Inc., priority 2022, published 2025).

One assay has as its target T1, pSTAT3 (pY705-STAT3) (Homo sapiens, UniProt P40763).
T1 construct: host or cells: cryopreserved PBMC
Briefly: MSD-pSTAT-PBMC Assay (pSTAT3, IL-6 stimulated). The assay is classed as cell-based. The following applies: PBMC, compound 3 hrs, then 10 ng/mL IL-6 for 10 min; MSD pY705-STAT3; read-out: pSTAT3. The procedure, abridged: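 Phospho-STAT levels captured on anti-STAT3 or anti-STAT6 plates and detected with anti-pY705 or anti-pY641 antibodies (MSD read-out). Cryopreserved human PBMCs received compound for 3 h before a 10 min pulse of IL-6 (10 ng/mL, STAT3) or IL-4 (1 ng/mL, STAT6). IC50 fitted after unstimulated-background subtraction and DMSO normalization.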

A further assay deals with T2, pSTAT6 (pY641-STAT6) (Homo sapiens, UniProt P42226).
T2 construct: host or cells: cryopreserved PBMC
T2 sequence (P42226 1-847): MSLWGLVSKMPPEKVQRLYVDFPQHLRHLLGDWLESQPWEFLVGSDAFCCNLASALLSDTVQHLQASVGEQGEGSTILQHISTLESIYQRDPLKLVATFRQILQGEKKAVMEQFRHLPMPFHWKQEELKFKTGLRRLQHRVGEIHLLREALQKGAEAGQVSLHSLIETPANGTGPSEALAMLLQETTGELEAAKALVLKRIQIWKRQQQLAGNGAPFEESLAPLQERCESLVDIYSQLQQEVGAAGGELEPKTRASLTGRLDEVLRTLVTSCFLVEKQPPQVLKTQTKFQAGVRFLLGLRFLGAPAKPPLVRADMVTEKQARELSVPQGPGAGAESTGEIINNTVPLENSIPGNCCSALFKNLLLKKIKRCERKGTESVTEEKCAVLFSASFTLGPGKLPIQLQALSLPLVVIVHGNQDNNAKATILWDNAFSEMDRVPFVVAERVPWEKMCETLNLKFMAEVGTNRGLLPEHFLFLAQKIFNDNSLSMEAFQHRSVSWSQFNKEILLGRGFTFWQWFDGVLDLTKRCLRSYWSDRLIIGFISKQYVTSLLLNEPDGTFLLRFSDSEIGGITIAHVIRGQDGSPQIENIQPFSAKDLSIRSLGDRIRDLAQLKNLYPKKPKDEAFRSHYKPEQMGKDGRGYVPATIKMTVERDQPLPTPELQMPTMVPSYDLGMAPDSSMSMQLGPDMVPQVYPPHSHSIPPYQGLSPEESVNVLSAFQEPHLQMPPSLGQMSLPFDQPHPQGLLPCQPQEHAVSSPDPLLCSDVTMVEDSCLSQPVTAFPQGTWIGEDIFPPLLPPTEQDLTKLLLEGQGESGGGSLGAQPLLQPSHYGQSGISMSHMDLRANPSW
Briefly: MSD-pSTAT-PBMC Assay (pSTAT6, IL-4 stimulated). The format is cell-based. Conditions: compound 3 hrs, then 1 ng/mL IL-4 for 10 min. The source says:
Cryopreserved Peripheral Blood Mononuclear Cells (PBMC) are from AllCells. Recombinant Human IL-4 and IL-6 are from Peprotech. Mouse monoclonal anti-STAT3 antibody, rabbit monoclonal anti-pY705-STAT3 antibody, rabbit monoclonal Anti-pY641-STAT6 antibody, and lysis buffer are from Cell Signaling Technology (CST). Mouse monoclonal anti-STAT6 antibody is from BioLegend. Assay plates, blocker, and anti-rabbit secondary antibody are from Meso Scale Discovery (MSD).
Cryopreserved PBMCs were thawed out and allowed to recover overnight in IMDM+10% heat-inactivated FBS prior to plating 50,000 (STAT3) or 25,000 (STAT6) cells per well in 96-well U-bottom tissue culture plates. Cells were treated with compound for 3 hrs, then stimulated with 10 ng/mL IL-6 (STAT3) or 1 ng/mL IL-4 (STAT6) for 10 min. Cells were then spun down and washed with ice-cold PBS prior to lysing the cell pellet with 1× lysis buffer (CST) with 1× HALT protease and phosphatase inhibitor cocktail (Thermo). Lysates were transferred to and incubated overnight at 4° C. with shaking in QuickPlex 96-well high bind assay plates (MSD) pre-coated overnight with 30 μL per well of 0.6 μg/mL mouse monoclonal anti-STAT3 antibody (STAT3) or 2 μg/mL mouse monoclonal anti-STAT6 antibody (STAT6) in 1×PBS, and pre-blocked for 1 hour with 3% Blocker-A (MSD). Captured protein in the assay plates were then washed and probed with 25 μL per well of 0.25 μg/ml rabbit monoclonal anti-pY705-STAT3 antibody (STAT3) or 0.18 μg/ml rabbit monoclonal Anti-pY641-STAT6 antibody (STAT6) in 1% Blocker-A for 1 hour at room temperature with shaking, then washed and probed with 25 ul per well of 1 ug/mi Sulfo-TAG Labeled Goat Anti-Rabbit Antibody (MSD) in 1% Blocker-A for 1 hour at room temperature with shaking. Assay plates were then washed and 150 μL of 1× Read Buffer-T (MSD) was added to each well prior to reading on an SQ120 MSD Plate Reader. Assay signal from each sample was subtracted by the signal from unstimulated control wells and normalized to DMSO control wells. IC50 values were calculated using Graph Pad Prism Dose-Response Nonlinear Regression with variable slope. For both pSTAT3 and pSTAT6 A=≤100 nM; B=>100-1000 nM; C=>1000-3000 nM; and D=>3 μM.

T1 sequence (P40763 whole entry): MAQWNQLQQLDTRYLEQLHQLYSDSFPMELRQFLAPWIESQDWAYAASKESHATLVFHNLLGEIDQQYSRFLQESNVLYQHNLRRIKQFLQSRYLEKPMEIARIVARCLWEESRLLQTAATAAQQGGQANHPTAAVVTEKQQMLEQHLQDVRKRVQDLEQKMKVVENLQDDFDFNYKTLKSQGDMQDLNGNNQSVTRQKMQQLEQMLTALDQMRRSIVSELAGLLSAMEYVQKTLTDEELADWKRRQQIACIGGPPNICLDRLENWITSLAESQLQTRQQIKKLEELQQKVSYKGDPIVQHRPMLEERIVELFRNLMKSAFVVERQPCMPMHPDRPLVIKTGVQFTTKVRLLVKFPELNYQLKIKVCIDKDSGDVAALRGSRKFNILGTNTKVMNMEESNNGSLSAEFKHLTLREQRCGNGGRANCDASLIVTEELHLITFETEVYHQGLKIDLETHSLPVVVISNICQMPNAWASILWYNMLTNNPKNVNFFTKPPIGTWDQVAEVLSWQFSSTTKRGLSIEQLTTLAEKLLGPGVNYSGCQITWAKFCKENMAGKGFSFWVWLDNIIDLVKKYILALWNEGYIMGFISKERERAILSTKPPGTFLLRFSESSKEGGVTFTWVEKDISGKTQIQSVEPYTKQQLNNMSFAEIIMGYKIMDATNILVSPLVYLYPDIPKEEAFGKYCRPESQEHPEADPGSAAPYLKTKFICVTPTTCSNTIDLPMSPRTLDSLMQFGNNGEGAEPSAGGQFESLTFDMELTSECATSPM

As to `CC(C)(C)C(=O)SCCOP(=O)(OCCSC(=O)C(C)(C)C)C(F)(F)c1ccc2sc(C(=O)N[C@H]3C[C@H]4C[C@H]4C[C@H]4CC[C@@H](C(=O)N5CC(c6c[nH]cn6)C5)N4C3=O)cc2c1` [Compound 219, S,S′-(((((2-(((3S,6S,7aR, 8aS,9aR)-3-(3-(1H-imidazol-4-yl)azetidine-1-carbonyl)-5-oxodecahydro-1H-cyclopropa[d]pyrrolo[1,2-a]azocin-6-yl)carbamoyl)benzo[b]thiophen-5-yl)difluoromethyl)phosphoryl)bis(oxy))bis(ethane-2,1-diyl)) bis(2,2-dimethyl-propanethioate)], the results for the IC50 on pSTAT3 (pY705-STAT3) and against pSTAT6 (pY641-STAT6) were < 0.1 µM and 0.1 to 1 µM, respectively.

With `CCCCC(=O)OCOP(=O)(OCOC(=O)CCCC)C(F)(F)c1ccc2sc(C(=O)N[C@H]3C[C@@H]4C[C@@H]4C[C@H]4CC[C@@H](C(=O)N5CC(C(=O)N6CCOCC6)C5)N4C3=O)cc2c1` [Example 4, (((difluoro(2-(((3S,6S,7aS,8aR,9aR)-3-(3-(morpholine-4-carbonyl)azetidine-1-carbonyl)-5-oxodecahydro-1H-cyclopropa[d]pyrrolo[1,2-a]azocin-6-yl)carbamoyl)benzo[b]thiophen-5-yl)methyl)phosphoryl)bis(oxy))bis(methylene) dipentanoate], the IC50 on pSTAT3 (pY705-STAT3) is < 0.1 µM; on pSTAT6 (pY641-STAT6), > 3 µM.

Turning to `CC(C)(C)C(=O)OCOP(=O)(OCOC(=O)C(C)(C)C)C(F)(F)c1ccc2sc(C(=O)N[C@H]3C[C@H]4C[C@H]4C[C@H]4CC[C@@H](C(=O)N5CC(c6cccnc6)C5)N4C3=O)cc2c1` [Compound 187, (((difluoro(2-(((3S,6S,7aR, 8aS,9aR)-5-oxo-3-(3-(pyridin-3-yl)azetidine-1-carbonyl)decahydro-1H-cyclopropa[d]pyrrolo[1,2-a]azocin-6-yl)carbamoyl)benzo[b]thiophen-5-yl)methyl)phosphoryl)bis(oxy)) bis(methylene) bis(2,2-dimethyl-propanoate)], the values for the IC50 at pSTAT3 (pY705-STAT3) and against pSTAT6 (pY641-STAT6) were < 0.1 µM and 0.1 to 1 µM, respectively.

As to `CCCC(=O)SCCOP(=O)(Cc1ccc2sc(C(=O)N[C@H]3C[C@@H]4C[C@@H]4C[C@H]4CC[C@@H](C(=O)N5CC(C(=O)N6CCOCC6)C5)N4C3=O)cc2c1)OCCSC(=O)CCC` [Compound 149, S,S′-(((((2-(((3S,6S,7aS, 8aR,9aR)-3-(3-(morpholine-4-carbonyl)azetidine-1-carbonyl)-5-oxodecahydro-1H-cyclopropa[d]pyrrolo[1,2-a]azocin-6-yl)carbamoyl)benzo[b]thiophen-5-yl)methyl)phosphoryl)bis(oxy))bis(ethane-2,1-diyl)) dibutanethioate], the results for the IC50 at pSTAT3 (pY705-STAT3) and at pSTAT6 (pY641-STAT6) were 1 to 3 µM and > 3 µM, respectively.

Regarding `COC1(c2nccn2C)CN(C(=O)[C@@H]2CC[C@@H]3C[C@@H]4C[C@@H]4C[C@H](NC(=O)c4cc5cc(C(F)(F)P(=O)(OCCSC(=O)C(C)(C)C)OCCSC(=O)C(C)(C)C)ccc5s4)C(=O)N32)C1` [Compound 202, S,S′-((((difluoro(2-(((3S,6S,7aR, 8aS,9aR)-3-(3-methoxy-3-(1-methyl-1H-imidazol-2-yl)azetidine-1-carbonyl)-5-oxodecahydro-1H-cyclopropa[d]pyrrolo[1,2-a]azocin-6-yl)carbamoyl)benzo[b]thiophen-5-yl)methyl)phosphoryl)bis(oxy))bis(ethane-2,1-diyl)) bis(2,2-dimethyl-propanethioate)], the IC50 at pSTAT3 (pY705-STAT3) is < 0.1 µM; against pSTAT6 (pY641-STAT6), > 3 µM.

Consider `CCCC(=O)SCCOP(=O)(Cc1ccc2sc(C(=O)N[C@H]3C[C@@H]4C[C@@H]4C[C@H]4CC[C@@H](C(=O)N5CC(n6ccnc6)C5)N4C3=O)cc2c1)OCCSC(=O)CCC` [Compound 158, S,S′-(((((2-(((3S,6S,7aS, 8aR,9aR)-3-(3-(1H-imidazol-1-yl)azetidine-1-carbonyl)-5-oxodecahydro-1H-cyclopropa[d]pyrrolo[1,2-a]azocin-6-yl)carbamoyl)benzo[b]thiophen-5-yl)methyl)phosphoryl)bis(oxy))bis(ethane-2,1-diyl)) dibutanethioate], for which the IC50 is 0.1 to 1 µM on pSTAT3 (pY705-STAT3) and > 3 µM on pSTAT6 (pY641-STAT6).
